± gives the expanded uncertainty stated by the source.
Conditions: for vapor or sublimation pressure: Liquid, Closed cell (Static) method; for mass density: Fluid (supercritical or subcritical phases), isochoric method

CC(C)O [propan-2-ol]
Conditions | vapor or sublimation pressure [kPa]
301.24 K | 7 ± 1
314.26 K | 15 ± 1
314.29 K | 15 ± 1
314.52 K | 15 ± 1
314.8 K | 16 ± 1
315.05 K | 16 ± 1
315.3 K | 16 ± 1
315.42 K | 16 ± 1
315.61 K | 16 ± 1
315.8 K | 17 ± 1
341.91 K | 57 ± 1
342.03 K | 57 ± 1
342.08 K | 57 ± 1
342.2 K | 57 ± 1
342.32 K | 58 ± 1
342.49 K | 58 ± 1
342.67 K | 58 ± 1
342.79 K | 59 ± 1
342.91 K | 59 ± 1
343.03 K | 59 ± 1
369.05 K | 169 ± 2
369.13 K | 169 ± 2
369.16 K | 169 ± 2
369.28 K | 170 ± 2
369.39 K | 171 ± 2
369.5 K | 171 ± 2
369.67 K | 172 ± 2
369.84 K | 173 ± 2
369.96 K | 174 ± 2
370.07 K | 175 ± 2
391.32 K | 358 ± 4
391.5 K | 360 ± 4
391.53 K | 360 ± 4
391.54 K | 360 ± 4
391.65 K | 362 ± 4
391.76 K | 363 ± 4
391.87 K | 364 ± 4
391.98 K | 366 ± 4
392.09 K | 367 ± 4
392.2 K | 368 ± 4
416.55 K | 732 ± 7
416.65 K | 734 ± 7
416.73 K | 736 ± 7
416.76 K | 736 ± 7
416.86 K | 739 ± 8
416.97 K | 741 ± 8
417.08 K | 743 ± 8
417.18 K | 745 ± 8
417.29 K | 747 ± 8
417.4 K | 749 ± 8
417.5 K | 756 ± 8
442.12 K | 1367 ± 14
442.14 K | 1368 ± 14
442.23 K | 1371 ± 14
442.33 K | 1374 ± 14
442.43 K | 1377 ± 14
442.54 K | 1381 ± 14
442.64 K | 1383 ± 14
442.74 K | 1386 ± 14
442.85 K | 1389 ± 14
463.48 K | 2136 ± 22
463.56 K | 2140 ± 22
463.58 K | 2141 ± 22
463.78 K | 2149 ± 22
463.83 K | 2152 ± 22
463.97 K | 2158 ± 22
464.18 K | 2166 ± 22
464.27 K | 2171 ± 22
464.42 K | 2177 ± 22
464.97 K | 2201 ± 22
465.27 K | 2213 ± 22
465.34 K | 2217 ± 22
468.1 K | 2330 ± 24
482.51 K | 3081 ± 31
482.6 K | 3085 ± 31
482.7 K | 3089 ± 31
482.72 K | 3090 ± 31
482.8 K | 3093 ± 31
482.89 K | 3098 ± 31
482.99 K | 3102 ± 31
483.09 K | 3106 ± 31
483.18 K | 3110 ± 31
500.85 K | 4213 ± 43
500.95 K | 4219 ± 43
501.04 K | 4224 ± 43
501.08 K | 4226 ± 43
501.14 K | 4229 ± 43
501.23 K | 4235 ± 43
501.33 K | 4240 ± 43
501.42 K | 4245 ± 43
501.53 K | 4251 ± 43
501.62 K | 4256 ± 43
501.81 K | 4267 ± 43
501.9 K | 4272 ± 43
503.92 K | 4428 ± 45
504.02 K | 4438 ± 45
504.03 K | 4436 ± 45
504.11 K | 4366 ± 45
504.31 K | 4456 ± 45
504.5 K | 4470 ± 45
504.59 K | 4477 ± 45
504.98 K | 4504 ± 46
505.06 K | 4521 ± 46
505.08 K | 4522 ± 46
505.27 K | 4536 ± 46
505.37 K | 4544 ± 46
506.43 K | 4667 ± 47
506.53 K | 4675 ± 47
506.61 K | 4648 ± 47
506.62 K | 4682 ± 47
506.72 K | 4690 ± 47
506.82 K | 4697 ± 48
506.96 K | 4708 ± 48
506.97 K | 4709 ± 48
507.11 K | 4720 ± 48
507.2 K | 4727 ± 48
507.3 K | 4735 ± 48
507.4 K | 4743 ± 48
507.5 K | 4750 ± 48
507.59 K | 4757 ± 48
507.69 K | 4765 ± 48
507.79 K | 4773 ± 48
507.89 K | 4781 ± 48
508.04 K | 4793 ± 49
508.16 K | 4803 ± 49

Conditions | mass density [kg/m3]
508.16 K, 4803 kPa | 329.2 ± 0.7
508.18 K, 4804 kPa | 329.2 ± 0.7
508.28 K, 4813 kPa | 329.2 ± 0.7
508.37 K, 4822 kPa | 329.2 ± 0.7
508.47 K, 4831 kPa | 329.2 ± 0.7
508.57 K, 4840 kPa | 329.2 ± 0.7
508.67 K, 4849 kPa | 329.2 ± 0.7
508.76 K, 4858 kPa | 329.2 ± 0.7
509.35 K, 4911 kPa | 329.2 ± 0.7
509.45 K, 4920 kPa | 329.2 ± 0.7
509.5 K, 5095 kPa | 329.2 ± 0.7
509.55 K, 4929 kPa | 329.2 ± 0.7
509.64 K, 4938 kPa | 329.2 ± 0.7
509.79 K, 4951 kPa | 329.2 ± 0.7
509.99 K, 4967 kPa | 329.2 ± 0.7
510.14 K, 4981 kPa | 329.2 ± 0.7
510.23 K, 4990 kPa | 329.2 ± 0.7
510.33 K, 4999 kPa | 329.2 ± 0.7
510.48 K, 5012 kPa | 329.2 ± 0.7
510.93 K, 5271 kPa | 329.2 ± 0.7
516.9 K, 5603 kPa | 329.2 ± 0.7
516.99 K, 5611 kPa | 329.2 ± 0.7
517.08 K, 5619 kPa | 329.2 ± 0.7
517.27 K, 5637 kPa | 329.2 ± 0.7
521.87 K, 6056 kPa | 329.2 ± 0.7
521.96 K, 6064 kPa | 329.2 ± 0.7
522.14 K, 6080 kPa | 329.2 ± 0.7
522.33 K, 6397 kPa | 329.2 ± 0.7
522.42 K, 6405 kPa | 329.2 ± 0.7
522.51 K, 6414 kPa | 329.2 ± 0.7
522.6 K, 6495 kPa | 329.2 ± 0.7

Source: the NIST ThermoML archive (doi:10.1016/j.jct.2018.12.009)
